US5912356A, “Antiviral nucleoside analogues containing a substituted benzimidazole base attached to a carbocyclic ring” (Glaxo Wellcome Inc., priority 1997, dated 1999)

Legend:
[1] = tested on: Human cytomegalovirus (HCMV); test: Anti-HCMV plaque reduction assay in MRC5 cell monolayers; format: cell-based; details: Human betaherpesvirus 5, 50% inhibitory concentration, MRC5 cells (human embryonic lung)
Experimental: Human cytomegalovirus (HCMV) is assayed in monolayers of MRC5 cells (human embryonic lung) in multiwell trays. Activity of compounds is determined in the plaque reduction assay, in which a cell monolayer is infected with a suspension of HCMV. A range of concentrations of the compound to be tested (of known molarity) is then incorporated into the carboxymethyl cellulose overlay. Plaque numbers of each concentration are expressed as percentage of the control and a dose-response curve is drawn. From this curve the 50% inhibitory concentration (IC50) is estimated.

HBV = test: Anti-HBV assay: HBV DNA in supernatants of HBV-producing cells (HepG2 2.2.15, P5A), immunoaffinity capture, PCR and hybrid-capture detection; format: cell-based, hepatitis B virus (HBV); details: 50 percent decrease in HBV DNA, HepG2 2.2.15, P5A cell line, two values per compound, ganciclovir (control): average of 10 values
Experimental: Anti-HBV activity of compounds of formula (I) and (I-1) was determined with a high-capacity assay for assessing efficacy. Supernatants from growing HBV-producing cells (HepG2 2.2.15, P5A cell line) in 96-well plates are applied to microtiter plate wells which have been coated with a specific monoclonal antibody to HBV surface antigen (HBsAg). Virus particles present in the supernatants bind to the antibody and remain immobilized while other debris is removed by washing. These virus particles are then denatured to release HBV DNA strands which are subsequently amplified by the polymerase chain reaction and detected with a calorimetric hybrid-capture assay. Quantitation is achieved through fitting of a standard curve to dilutions of a cell supernatant with known HBV DNA content. By comparing HBV DNA levels of untreated control cell supernatants with supernatants containing a compound of formula (I) or (I-1), a measure of anti-HBV effectiveness is obtained.
b. Immunoaffinity Capture of HBV:
HBV producer cells, 2500 cells/well, were seeded in 96-well culture dishes in RPMI/10% fetal bovine serum/2 mM glutamine (RPMI/10/2:). Media were replenished on days 1, 3, 5, and 7 with dilutions of a compound of formula (1) or (I-1) in RPMI/10/2 to a final volume of 150 uL. Fifty uL of mouse monoclonal anti-HBsAG antibody (10 ug/mL in PBS) were added to each well of a round-bottom microtiter plate. After incubation overnight at 4° C., the solutions were aspirated and replaced with 100 uL of 0.1% BSA in PBS. Samples were incubated for 2 hours at 37° C. and washed three times with PB S/0/01% Tween-20 (PBS/T) using a Nunc Washer. Ten uL of 0.035% Tween 20 in PBS were then added to all wells by Pro/Pette. Cell supernatants (25 uL) containing extracellular virion DNA were transferred into wells by Pro/Pette; the final Tween concentration is 0.01%. Twenty-five uL HBV standard media dilutions in RPMI/10/2 were added to 2 rows of wells to serve as an internal standard curve for quantitation, and the plates were sealed and incubated at 4° C. overnight. Samples were washed 5 times with PBS/T and 2 times with PBS, aspirating the last wash. Next, 25 uL of 0.09N NaOH/0.01% NP40 were added to each well by Pro/Pette, and the sample wells were sealed and incubated at 37° C. for 60 minutes. Samples were then neutralized with 25 uL of 0.09N HCl/100 mM tris (pH 8.3).
c. Polymerase Chain Reaction (PCR):
Polymerase chain reaction (Saiki, R. K. et al., Science, 239 (4839) 487-91 (1988)) was carried out on 5 uL samples, using a Perkin Elmer PCR kit. PCR is performed in "MicroAmp tubes" in a final volume of 25 uL. Primers were chosen from conserved regions in the HBV genome, as determined by alignment of several sequences. One primer is biotinylated at the 5-prime end to facilitate hybrid-capture detection of the PCR products. All primers were purchased from Synthecell Corp., Rockville, Md. 20850.
d. Hybrid-Capture Detection of PCR Products:
PCR products were detected with horse radish peroxidase-labeled oligonucleotide probes (Synthecell Corp., Rockville, Md. 20850), which hybridize to biotinylated strands of denatured PCR products directly in streptavidin-coated microtiter plate wells, using essentially the method of Holodiniy, M. et al., BioTechniques, 12 (1) 37-39 (1992). Modifications included the use of […] PCR reaction volumes and sodium hydroxide denaturation instead of heat. Simultaneous binding of the biotin moiety to the plate-bound streptavidin during the hybridization serves to "capture" the hybrids. Unbound labeled probes were washed away before calorimetric determination of the bound (hybridized) horse radish peroxidase. Quantities of HBV DNA present in the original samples were calculated by comparison with standards. These values were then compared to those from untreated cell cultures to determine the extent of anti-HBV activity.
IC50 (the median inhibitory concentration) is the amount of compound which produces a 50 percent decrease in HBV DNA. […]

[2] = Hepatitis B virus, HepG2 2.2.15, approximate IC50

Row | Structure (SMILES) | IC50 [1] [nM] | IC50 (HBV; [2]) [nM] | IC50 (HBV; approximate IC50) [nM]
1 | OC[C@@H]1C[C@H](n2c(Br)nc3cc(Cl)c(Cl)cc32)[C@@H](O)[C@H]1O (relative stereo) [Ex. 4, (±)-(1R*, 2S*, 3S*, 5S*)-5-(2-Bromo-5,6-dichloro-1H-benzimidazol-1yl)-3-(hydroxymethyl)-1,2-cyclopentanediol] | 1900 |  | 
2 | OC[C@@H]1C[C@H](n2c(NC3CC3)nc3cc(Cl)c(Cl)cc32)[C@@H](O)[C@H]1O [Ex. 32, (1R, 2S, 3S, 5S)-5-[5,6-Dichloro-2-(cyclopropylamino)-1H-benzimidazol-1-yl]-3-(hydroxymethyl)-1,2-cyclopentanediol] |  | 1300 | 790
3 | CC(C)Nc1nc2cc(Cl)c(Cl)cc2n1[C@H]1C[C@@H](CO)[C@H](O)[C@@H]1O [Ex. 33, (1R, 2S, 3S, 5S)-5-[5,6-Dichloro-2-(isopropylamino)-1H-benzimidazol-1-yl]-3-(hydroxymethyl)-1,2-cyclopentanediol] |  | 440 | 500
4 | CC(C)(C)Nc1nc2cc(Cl)c(Cl)cc2n1[C@H]1C[C@@H](CO)[C@H](O)[C@@H]1O [Ex. 40, (1R, 2S, 3S, 5S)-5-[2-(tert-Butylamino)-5,6-dichloro-1H-benzimidazol-1-yl]-3-(hydroxymethyl)-1,2-cyclopentanediol] |  |  | 1400
5 | Nc1nc(O)c2ncn(COC(CO)CO)c2n1 [ganciclovir, reference compound] |  | 1100 | 
